In patent US11661400B2, “NADPH oxidase inhibitors, pharmaceutical composition comprising the same, and application thereof” (TAIWANJ PHARMACEUTICALS CO., LTD., priority 2018, dated 2023):

Tests used:
NOX4 = target: T1, NOX4 (Homo sapiens, UniProt Q9NPH5); assay: NOX4 HEK293 overexpression cell-based assay (Amplex Red H2O2); settings: HEK293 cells stably overexpressing NOX4, DMSO = 0, GKT137831 = 100; for inhibition at 1 µM: HEK293, 1000 nM; for inhibition at 0.1 µM: HEK293, 100 nM
T1 construct: expressed in transfected cells
T1 sequence (Q9NPH5 1-578): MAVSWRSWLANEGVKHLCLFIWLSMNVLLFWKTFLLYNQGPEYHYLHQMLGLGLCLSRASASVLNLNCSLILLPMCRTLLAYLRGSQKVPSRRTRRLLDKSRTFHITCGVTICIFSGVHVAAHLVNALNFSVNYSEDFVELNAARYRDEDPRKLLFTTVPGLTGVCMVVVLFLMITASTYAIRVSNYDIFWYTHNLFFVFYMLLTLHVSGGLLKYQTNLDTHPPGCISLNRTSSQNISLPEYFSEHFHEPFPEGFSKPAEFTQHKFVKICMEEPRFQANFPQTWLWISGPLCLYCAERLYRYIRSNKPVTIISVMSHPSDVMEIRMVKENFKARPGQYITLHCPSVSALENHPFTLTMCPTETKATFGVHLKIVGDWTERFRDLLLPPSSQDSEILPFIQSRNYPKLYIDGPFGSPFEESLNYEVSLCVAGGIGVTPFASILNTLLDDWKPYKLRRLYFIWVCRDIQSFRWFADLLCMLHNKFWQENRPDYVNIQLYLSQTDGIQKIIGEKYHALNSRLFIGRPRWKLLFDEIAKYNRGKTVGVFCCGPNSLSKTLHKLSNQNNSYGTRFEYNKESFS
T1 sequence (P13498 2-195 partner limits assumed): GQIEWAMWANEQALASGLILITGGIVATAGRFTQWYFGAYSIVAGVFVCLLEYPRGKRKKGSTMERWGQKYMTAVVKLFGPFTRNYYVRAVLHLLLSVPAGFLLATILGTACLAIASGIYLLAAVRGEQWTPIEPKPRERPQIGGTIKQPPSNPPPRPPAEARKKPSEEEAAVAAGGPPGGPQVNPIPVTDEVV
Description: Extracellular H2O2 measurement using Amplex™ Red Hydrogen Peroxide/Peroxidase Assay Kit (Catalog number: A22188; Invitrogen, Carlsbad, Calif., USA) was used to detect extracellular H2O2 release by HEK293 cells stably overexpressing NOX4. NOX4 clonal cells in log-phase growth were trypsinized, washed, and dispersed thoroughly. Following trypsinization, the cells (3×10^4) were resuspended in 100 μL of 1× Krebs-Ringer phosphate glucose (KRPG) buffer containing various concentrations of GKT137831 or test compounds and incubated at 37° C. for 30 min. Cells were mixed with 100 μL of Amplex Red reagent solution containing 50 μM Amplex Red and 0.1 units/mL of HRP in KRPG buffer; each assay condition was evaluated induplicate. The samples were incubated at 37° C. for 90 mins in the dark, and then centrifuged at 2,500 g for 5 mins. The supernatants were loaded to a 96 well plate, and then measured using a SpectraMax i3 Multiplate reader (Molecular Devices, Sunnyvale, Calif., USA) at 530 nm excitation and 590 nm emission respectively. DMSO and GKT137831 wells were applied as negative and positive controls, and the activities measured were set to 0 and 100, respectively.

NOX1 = target: T2, NOX1 (Homo sapiens, UniProt Q9Y5S8); assay: NOX1 HT29 cell-based assay (luminol/HRP luminescence); settings: HT-29, HT29 cells, DMSO = 0%, GKT137831 = 100%; for inhibition at 0.1 µM: 100 nM; for inhibition at 1 µM: 1000 nM
T2 construct: endogenous in cells; host or cells: HT29
T2 sequence (Q9Y5S8 1-564): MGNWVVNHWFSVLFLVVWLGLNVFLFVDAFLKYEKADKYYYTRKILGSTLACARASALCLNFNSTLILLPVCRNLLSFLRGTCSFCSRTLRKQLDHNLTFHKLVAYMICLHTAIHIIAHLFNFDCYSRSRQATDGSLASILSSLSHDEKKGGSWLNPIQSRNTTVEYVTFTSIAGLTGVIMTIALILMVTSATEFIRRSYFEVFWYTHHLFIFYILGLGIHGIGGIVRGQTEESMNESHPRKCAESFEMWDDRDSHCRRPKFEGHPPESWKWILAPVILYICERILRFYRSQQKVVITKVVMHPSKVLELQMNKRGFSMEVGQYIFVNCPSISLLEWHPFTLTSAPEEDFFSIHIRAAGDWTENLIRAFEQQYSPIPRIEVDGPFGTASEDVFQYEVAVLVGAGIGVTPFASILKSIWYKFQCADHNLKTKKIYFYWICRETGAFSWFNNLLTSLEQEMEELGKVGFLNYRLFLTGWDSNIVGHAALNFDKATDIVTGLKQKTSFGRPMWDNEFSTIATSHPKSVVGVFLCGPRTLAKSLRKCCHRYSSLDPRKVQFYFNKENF
T2 sequence (P13498 2-195 partner limits assumed): T1 sequence (P13498 2-195 partner limits assumed)
Description: NOX1 HT29 Cell-Based Assay:
HT29 cells were cultured in T75 flask (Corning) and when 70-80% confluence was reached, cells were trypsinized, harvested in HBSS and counted. 1-2×10^5 cells were dispensed into individual wells in 70 μl final volume (96-well plates, white Corning). Cells were treated for 30-60 mins at 37° C. with 10 μl of GKT137831, DMSO and test compounds from their respective assay plates. This will correspond to a final concentration of 100 nM, 1000 nM GKT137831 or test compounds, and 0.1% DMSO. 20 μL of a mixture containing 100 μM luminol plus 0.4 units of HRP (final concentration) was added. Luminescence was quantified using a SpectraMax i3 Multiplate reader (Molecular Devices, Sunnyvale, Calif., USA). As designed, compounds that inhibit NOX1 activity will reduce cellular ROS production, leading to reduced probe-ROS interactions and reduced well luminescence. Compounds were tested in duplicate at a concentration of 100 nM and 1000 nM. DMSO and GKT137831 wells were applied as negative and positive controls, and the activities measured were set to 0% and 100%, respectively.

NOX2 = target: T3, NOX2 (Homo sapiens, UniProt P04839); assay: NOX2 HL60 cell-based assay (PMA oxidative burst, L012 chemiluminescence); settings: DMSO-differentiated HL-60 cells, PMA-stimulated; for inhibition at 0.1 µM: HL-60, 100 nM; for inhibition at 1 µM: HL-60, 1000 nM
T3 construct: HL-60 cells, rich in NOX2 expression; endogenous in cells; host or cells: DMSO-differentiated HL-60
T3 sequence (P04839 2-570 limits assumed): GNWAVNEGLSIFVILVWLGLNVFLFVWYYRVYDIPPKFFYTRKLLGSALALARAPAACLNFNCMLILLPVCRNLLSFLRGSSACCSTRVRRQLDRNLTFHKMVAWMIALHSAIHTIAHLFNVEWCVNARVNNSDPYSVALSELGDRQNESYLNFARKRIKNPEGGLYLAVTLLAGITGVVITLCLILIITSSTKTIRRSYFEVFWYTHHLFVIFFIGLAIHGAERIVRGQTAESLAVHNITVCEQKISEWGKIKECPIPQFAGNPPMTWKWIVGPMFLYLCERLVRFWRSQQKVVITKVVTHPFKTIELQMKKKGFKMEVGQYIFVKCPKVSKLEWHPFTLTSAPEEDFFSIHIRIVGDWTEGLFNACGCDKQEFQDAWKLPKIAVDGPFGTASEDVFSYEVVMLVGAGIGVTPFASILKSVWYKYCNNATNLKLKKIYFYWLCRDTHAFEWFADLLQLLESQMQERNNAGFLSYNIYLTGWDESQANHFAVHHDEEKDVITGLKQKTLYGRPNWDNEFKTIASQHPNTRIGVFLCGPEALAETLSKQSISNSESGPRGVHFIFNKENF
T3 sequence (P13498 2-195 partner limits assumed): T1 sequence (P13498 2-195 partner limits assumed)
Description: NOX2 HL60 Cell-Based Assay:
HL-60 cells, rich in NOX2 expression, was stimulated to undergo oxidative burst by phorbol myristate acetate (PMA). The ROS produced during this process was measured using the O2^−-specific chemiluminescent probe L012. L012 was added to DMSO-differentiated HL-60 cell suspensions to a final concentration of 100 μM. Then, 80 μL aliquots of cell suspension (2.5×10^5 cells) were transferred to individual wells of a 96-well plate. Test compounds were directly added to the wells at the specified concentrations. Following a 30-60 mins incubation at 37° C. in the dark, the oxidative burst was initiated by the addition of 10 ng/mL PMA, and the chemiluminescence signal was recorded every 5 min over a period of 60 mins in a SpectraMax i3 Multiplate reader (Molecular Devices, Sunnyvale, Calif., USA). • NOX4 HEK293 Overexpression Cell-Based Assay: […]

Row | SMILES | inhibition at 1 µM (NOX4) | inhibition at 0.1 µM (NOX1) | inhibition at 1 µM (NOX1) | inhibition at 0.1 µM (NOX2) | inhibition at 1 µM (NOX2) | inhibition at 0.1 µM (NOX4) | % Inhibition NOX4 (NOX4; 100 nM) | % Inhibition NOX2 (NOX2; 1000 nM) | % Inhibition NOX2 (NOX2; 100 nM) | % Inhibition NOX2 (NOX2; 100 nM, 0.1 µM) | % Inhibition NOX2 (NOX2; 1000 nM, 1 µM) | % Inhibition NOX4 (NOX4; 1000 nM, 1 µM)
1 | COc1ccc(-c2[nH]c3ccsc3c(=O)c2O)cc1 [Compound 10] | ≥ 80% | ≥ 80% | ≥ 80% | ≤ 19% |  |  | C (the percent of inhibition of NOX by the compounds ranges from 2000 to 49%) | C (the percent of inhibition of NOX by the compounds ranges from 2000 to 49%) |  |  |  | 
2 | COc1cc2[nH]c(C(C)(C)C)c(O)c(=O)c2cc1OC [Compound 14] | ≤ 19% | ≤ 19% | ≥ 80% | ≤ 19% | ≤ 19% | ≤ 19% |  |  |  |  |  | 
3 | COc1ccc(-c2[nH]c3cc(OC)c(OC)cc3c(=O)c2O)c(OC)c1 [Compound 15] | ≥ 80% | ≥ 80% | ≥ 80% |  | ≥ 80% |  | C (the percent of inhibition of NOX by the compounds ranges from 2000 to 49%) |  | C (the percent of inhibition of NOX by the compounds ranges from 2000 to 49%) |  |  | 
4 | COc1cc2[nH]c(-c3ccccc3C(F)(F)F)c(O)c(=O)c2cc1OC [Compound 17] | 50 to 79% | ≥ 80% | ≥ 80% |  |  | 50 to 79% |  |  |  | C (the percent of inhibition of NOX by the compounds ranges from 2000 to 49%) | B (the percent of inhibition of NOX by the compounds ranges from 50% o to 79% o) | 
5 | COc1ccccc1-c1[nH]c2c(OC)c(OC)c(OC)cc2c(=O)c1O [Compound 19] | 50 to 79% | ≥ 80% | ≥ 80% | ≤ 19% | 50 to 79% | ≤ 19% |  |  |  |  |  | 
6 | COc1cc2[nH]c(-c3ccccc3OC(F)(F)F)c(O)c(=O)c2cc1OC [Compound 20] |  | ≥ 80% | ≥ 80% | 50 to 79% |  |  | C (the percent of inhibition of NOX by the compounds ranges from 2000 to 49%) |  |  |  | A (the percent of inhibition of NOX by the compounds is larger than or equals to 80%) | B (the percent of inhibition of NOX by the compounds ranges from 50% o to 79% o)

Further lines, with some results ahead:

Row | inhibition at 1 µM (NOX4) | inhibition at 0.1 µM (NOX1) | inhibition at 1 µM (NOX1) | inhibition at 0.1 µM (NOX2) | inhibition at 1 µM (NOX2) | inhibition at 0.1 µM (NOX4) | SMILES | % Inhibition NOX4 (NOX4; 100 nM) | % Inhibition NOX2 (NOX2; 1000 nM) | % Inhibition NOX2 (NOX2; 100 nM) | % Inhibition NOX2 (NOX2; 100 nM, 0.1 µM) | % Inhibition NOX2 (NOX2; 1000 nM, 1 µM) | % Inhibition NOX4 (NOX4; 1000 nM, 1 µM)
7 | ≥ 80% | ≤ 19% | 50 to 79% | ≤ 19% | ≤ 19% |  | COc1cc2[nH]c(-c3ccc(N4CCCC4)cc3)c(O)c(=O)c2cc1OC [Compound 11] | C (the percent of inhibition of NOX by the compounds ranges from 2000 to 49%) |  |  |  |  | 
8 | ≥ 80% | ≤ 19% | ≥ 80% | ≤ 19% | ≤ 19% | ≤ 19% | COc1cc2[nH]c(-c3ccc(C(F)(F)F)cc3)c(O)c(=O)c2cc1OC [Compound 12] |  |  |  |  |  | 
9 | ≥ 80% | ≥ 80% | ≥ 80% | ≤ 19% | ≥ 80% |  | COc1cc2[nH]c(-c3ccc(F)cc3)c(O)c(=O)c2cc1OC [Compound 13] | C (the percent of inhibition of NOX by the compounds ranges from 2000 to 49%) |  |  |  |  | 
10 | 50 to 79% | ≥ 80% | ≥ 80% |  | ≥ 80% | 50 to 79% | COc1cc2[nH]c(-c3ccccc3C)c(O)c(=O)c2cc1OC [Compound 16] |  |  | C (the percent of inhibition of NOX by the compounds ranges from 2000 to 49%) |  |  | 
11 | 50 to 79% | ≥ 80% | ≥ 80% |  | 50 to 79% |  | COc1cc2[nH]c(-c3ccccc3F)c(O)c(=O)c2cc1OC [Compound 18] | C (the percent of inhibition of NOX by the compounds ranges from 2000 to 49%) |  | C (the percent of inhibition of NOX by the compounds ranges from 2000 to 49%) |  |  | 
